# Experiments:
# Cryptococcus neoformans [1] = test: Antifungal activity against Cryptococcus neoformans ATCC 32264 after 48 hrs by CLSI-based broth microdilution method; format: functional; conditions: ATCC 32264, 48 h
# Trichophyton rubrum [2] = test: Antifungal activity against Trichophyton rubrum after 5 days; format: functional; conditions: 120 h
# Cryptococcus gattii = test: Antifungal activity against Cryptococcus gattii after 72 hrs; format: functional, Cryptococcus gattii VGI
# Candida albicans [3] = test: Antifungal activity against Candida albicans ATCC 10231 after 48 hrs by CLSI-based broth microdilution method; format: functional; conditions: ATCC 10231, 48 h
# Saccharomyces cerevisiae = test: Antifungal activity against Saccharomyces cerevisiae ATCC 9763 after 48 hrs by CLSI-based broth microdilution method; format: functional; conditions: ATCC 9763, 48 h
# Candida tropicalis [4] = test: Antifungal activity against Candida tropicalis CCC 131-2000 after 48 hrs by CLSI-based broth microdilution method; format: functional; conditions: CCC 131-2000, 48 h
# Nannizzia gypsea = test: Antifungal activity against Microsporum gypseum after 5 days; format: functional; conditions: 120 h
# [5] = tested on: Trichophyton mentagrophytes; test: Antifungal activity against Trichophyton mentagrophytes after 5 days; format: functional; conditions: 120 h
# Trichophyton tonsurans = test: Antifungal activity against Trichophyton tonsurans after 5 days; format: functional; conditions: 120 h
# Nakaseomyces glabratus [6] = test: Antifungal activity against Candida glabrata ATCC 90030; format: functional
# Cryptococcus neoformans [7] = test: Antifungal activity against Cryptococcus neoformans after 72 hrs; format: functional
# Trichophyton rubrum [8] = test: Antifungal activity against Trichophyton rubrum ATCC MYA3108 by CLSI-based microdilution method; format: functional
# Candida albicans [9] = test: Antifungal activity against Candida albicans; format: functional, organism-based
# [10] = Inhibition of fatty acid synthase in Trichophyton rubrum ATCC MYA3108
# Aspergillus fumigatus [11] = test: Antifungal activity against Aspergillus fumigatus; format: functional
# Candida albicans [12] = test: Antifungal activity against Candida albicans ATCC 44859 after 24 to 48 hrs; format: functional
# Trichophyton rubrum [13] = test: Antifungal activity against Trichophyton rubrum deltaTruMDR2 by CLSI-based microdilution method; format: functional
# Candida parapsilosis [14] = test: Antifungal activity against Candida parapsilosis; format: functional; conditions: Lodderomyces parapsilosis
# Aspergillus fumigatus [15] = test: Fungicidal activity against Aspergillus fumigatus ATTC 26934 after 48 hrs; format: functional; conditions: ATTC 26934, 48 h
# Nakaseomyces glabratus [16] = test: Antifungal activity against Candida glabrata 493 by microdilution method; format: functional
# Candida albicans [17] = test: Antifungal activity against Candida albicans 498 by microdilution method; format: functional
# Nakaseomyces glabratus [18] = test: Antifungal activity against Candida glabrata WT-5; format: functional
# Trichophyton rubrum [19] = test: Antifungal activity against Trichophyton rubrum NBRC 5467 by microdilution method; format: functional
# Nakaseomyces glabratus [20] = test: Antifungal activity against Candida glabrata 482 by microdilution method; format: functional
# [21] = tested on: Trichophyton mentagrophytes; test: Antifungal activity against Trichophyton mentagrophytes IFM 46027 by microdilution method; format: functional
# Nakaseomyces glabratus [22] = test: Antifungal activity against Candida glabrata 531 by microdilution method; format: functional
# Candida parapsilosis [23] = test: Antifungal activity against Candida parapsilosis ATCC 22014; format: functional; conditions: Lodderomyces parapsilosis
# Candida albicans [24] = test: Antifungal activity against Candida albicans 53 by microdilution method; format: functional
# Candida albicans [25] = test: Antifungal activity against Candida albicans ATCC 10231 by microdilution method; format: functional
# Aspergillus fumigatus [26] = test: Antifungal activity against Aspergillus fumigatus NBRC 4400 by microdilution method; format: functional
# Nakaseomyces glabratus [27] = test: Antifungal activity against Candida glabrata 587 by microdilution method; format: functional
# Candida albicans [28] = test: Antifungal activity against Candida albicans 501 by microdilution method; format: functional
# Candida parapsilosis [29] = test: Antifungal activity against Candida parapsilosis 90/2224; format: functional; conditions: Lodderomyces parapsilosis
# Pichia kudriavzevii [30] = test: Antifungal activity against Candida krusei CK25; format: functional
# Candida parapsilosis [31] = test: Antifungal activity against Candida parapsilosis 96 by microdilution method; format: functional; conditions: Lodderomyces parapsilosis
# Nakaseomyces glabratus [32] = test: Antifungal activity against Candida glabrata 507 by microdilution method; format: functional
# Candida albicans [33] = test: Antifungal activity against Candida albicans NBRC 1385 by microdilution method; format: functional
# Candida tropicalis [34] = test: Antifungal activity against Candida tropicalis 166 by microdilution method; format: functional
# Pichia kudriavzevii [35] = test: Antifungal activity against Candida krusei ATCC 6258; format: functional
# Nakaseomyces glabratus [36] = test: Antifungal activity against Candida glabrata 510 by microdilution method; format: functional
# Cryptococcus neoformans [37] = test: Antifungal activity against Cryptococcus neoformans after 48 hrs by broth micro dilution method; format: functional
# Candida albicans [38] = test: Antifungal activity against Candida albicans after 48 hrs by broth micro dilution method; format: functional
# Candida parapsilosis [39] = test: Antifungal activity against Candida parapsilosis after 48 hrs by broth micro dilution method; format: functional; conditions: Lodderomyces parapsilosis
# Cryptococcus neoformans [40] = test: Antifungal activity against Cryptococcus neoformans ATCC 90112 after 48 hrs by CLSI-based method; format: functional; conditions: ATCC 90112, 48 h
# Trichophyton = test: Antifungal activity against Trichophyton; format: functional
# Nakaseomyces glabratus [41] = test: Antifungal activity against Candida glabrata; format: functional
# Pichia kudriavzevii [42] = test: Antifungal activity against Candida krusei; format: functional
# Pichia kudriavzevii [43] = test: Antifungal activity against Candida krusei 168 by microdilution method; format: functional
# Candida tropicalis [44] = test: Antibiofilm activity against Candida tropicalis by CSLM based method; format: functional
# Candida albicans [45] = test: Antifungal activity against FLC-resistant Candida albicans; format: functional
# Candida albicans [46] = test: Antibiofilm activity against Candida albicans by CSLM based method; format: functional
structure (smiles),measurement,setting,value
O=c1c(O[C@@H]2O[C@H](CO)[C@@H](O)[C@H](O)[C@H]2O)c(-c2cc(O)c(O)c(O)c2)oc2cc(O)cc(O)c12,MIC,Cryptococcus neoformans [1],31.2 µg/mL
same,MIC,Trichophyton rubrum [2],4 to 128 µg/mL
same,MIC,Cryptococcus gattii,128 µg/mL
same,MIC,Candida albicans [3],31.2 µg/mL
same,MIC,Saccharomyces cerevisiae,31.2 µg/mL
same,MIC,Candida tropicalis [4],31.2 µg/mL
same,MIC,Nannizzia gypsea,4 to 128 µg/mL
same,MIC,[5],4 to 128 µg/mL
same,MIC,Trichophyton tonsurans,4 to 128 µg/mL
same,MIC,Nakaseomyces glabratus [6],8.53 µg/mL
same,MIC,Cryptococcus neoformans [7],8 to 128 µg/mL
OC(Cn1cncn1)(Cn1cncn1)c1ccc(F)cc1F [FLUCONAZOLE],MIC,Trichophyton rubrum [8],63 µg/mL
same,MIC,Candida albicans [9],5.1 to 62.5 µg/mL
same,IC50,[10],68.23 µg/mL
same,MIC,Aspergillus fumigatus [11],125 µg/mL
same,MIC,Candida albicans [12],10.2 µM
same,MIC,Trichophyton rubrum [13],63 µg/mL
O=c1c(O[C@@H]2O[C@@H](CO)[C@H](O)[C@H]2O)c(-c2ccc(O)c(O)c2)oc2cc(O)cc(O)c12 [AVICULARIN],MIC,Candida parapsilosis [14],8 to 32 µg/mL
same,MIC,Candida albicans [9],2 to 32 µg/mL
same,MIC,Aspergillus fumigatus [15],2 to 16 µg/mL
O=c1cc(-c2ccccc2)oc2ccccc12 [FLAVONE],MIC,Nakaseomyces glabratus [16],62.5 µg/mL
same,MIC,Candida albicans [17],> 83 µg/mL
same,MIC,Nakaseomyces glabratus [18],52.7 µg/mL
same,MIC,Trichophyton rubrum [19],120 µM
same,MIC,Nakaseomyces glabratus [20],62.5 µg/mL
same,MIC,[21],60 µM
same,MIC,Nakaseomyces glabratus [22],62.5 µg/mL
same,MIC,Candida parapsilosis [23],5.4 µg/mL
same,MIC,Candida albicans [24],> 83 µg/mL
same,MIC,Candida albicans [25],> 83 µg/mL
same,MIC,Aspergillus fumigatus [26],230 µM
same,MIC,Nakaseomyces glabratus [27],62.5 µg/mL
same,MIC,Candida albicans [28],> 83 µg/mL
same,MIC,Candida parapsilosis [29],5.4 µg/mL
same,MIC,Pichia kudriavzevii [30],2.7 µg/mL
same,MIC,Candida parapsilosis [31],> 83 µg/mL
same,MIC50,Candida parapsilosis [31],13 to 104 µg/mL
same,MIC,Nakaseomyces glabratus [6],52.7 µg/mL
same,MIC,Nakaseomyces glabratus [32],62.5 µg/mL
same,MIC,Candida albicans [33],30 µM
same,MIC,Candida tropicalis [34],> 83 µg/mL
same,MIC50,Candida tropicalis [34],13 to 104 µg/mL
same,MIC,Pichia kudriavzevii [35],2.7 µg/mL
same,MIC,Nakaseomyces glabratus [36],62.5 µg/mL
C[C@@H]1O[C@@H](OC[C@H]2O[C@@H](Oc3c(-c4ccc(O)c(O)c4)oc4cc(O)cc(O)c4c3=O)[C@H](O)[C@@H](O)[C@@H]2O)[C@H](O)[C@H](O)[C@H]1O [RUTIN],MIC,Cryptococcus neoformans [37],> 256 µg/mL
same,MIC,Candida albicans [38],> 256 µg/mL
same,MIC,Candida parapsilosis [39],> 256 µg/mL
C[C@@H]1[C@H](O)[C@@H](C)/C=C/C=C/C=C/C=C/C=C/C=C/C=C/[C@H](O[C@@H]2O[C@H](C)[C@@H](O)[C@H](N)[C@@H]2O)C[C@@H]2O[C@](O)(C[C@@H](O)C[C@@H](O)[C@H](O)CC[C@@H](O)C[C@@H](O)CC(=O)O[C@H]1C)C[C@H](O)[C@H]2C(=O)O [AMPHOTERICIN B],MIC,Cryptococcus neoformans [40],0.03 µg/mL
Cc1c(O)c2c(c3c1OC(C)(C)C=C3)O[C@H](c1ccc(O)c(O)c1)CC2=O,MIC,Candida albicans [9],1.96 µg/mL
same,MIC,Trichophyton,1.95 µg/mL
COc1cc(O)cc2oc(-c3cc(O)c(O)c(O)c3)c(O)c(=O)c12,MIC,Cryptococcus neoformans [1],31.2 µg/mL
same,MIC,Trichophyton rubrum [2],4 to 128 µg/mL
same,MIC,Cryptococcus gattii,128 µg/mL
same,MIC,Candida albicans [3],31.2 µg/mL
same,MIC,Saccharomyces cerevisiae,31.2 µg/mL
same,MIC,Candida tropicalis [4],31.2 µg/mL
same,MIC,Nannizzia gypsea,4 to 128 µg/mL
same,MIC,[5],4 to 128 µg/mL
same,MIC,Trichophyton tonsurans,4 to 128 µg/mL
same,MIC,Nakaseomyces glabratus [6],6.79 to 15.4 µg/mL
same,MIC,Cryptococcus neoformans [7],8 to 128 µg/mL
O=c1cc(-c2ccccc2)oc2cc(O)c(O)c(O)c12 [BAICALEIN],MIC,Nakaseomyces glabratus [41],2.7 µg/mL
same,MIC,Candida parapsilosis [14],5.4 µg/mL
same,MIC,Nakaseomyces glabratus [16],1.9 µg/mL
same,MIC,Candida albicans [17],10.4 µg/mL
same,MIC,Nakaseomyces glabratus [18],52.7 µg/mL
same,MIC,Pichia kudriavzevii [42],2.7 µg/mL
same,MIC,Trichophyton rubrum [19],120 µM
same,MIC,Candida albicans [9],5.4 µg/mL
same,MIC,Nakaseomyces glabratus [20],1.9 µg/mL
same,MIC,Pichia kudriavzevii [43],21 µg/mL
same,MIC,[21],60 µM
same,MIC,Nakaseomyces glabratus [22],1.9 µg/mL
same,MIC,Candida parapsilosis [23],5.4 µg/mL
same,MIC,Candida albicans [24],10.4 µg/mL
same,MIC,Candida tropicalis [44],52 to 104 µg/mL
same,MIC,Candida albicans [25],10.4 µg/mL
same,MIC,Aspergillus fumigatus [26],230 µM
same,MIC,Candida albicans [45],13 to 26 µg/mL
same,MIC,Nakaseomyces glabratus [27],1.9 µg/mL
same,MIC50,Candida albicans [46],4 to 32 µg/mL
same,MIC,Candida albicans [28],10.4 µg/mL
same,MIC,Candida parapsilosis [29],5.4 µg/mL
same,MIC,Pichia kudriavzevii [30],2.7 µg/mL
same,MIC,Candida parapsilosis [31],5.2 to 13 µg/mL
same,MIC50,Candida parapsilosis [31],13 to 104 µg/mL
same,MIC,Nakaseomyces glabratus [6],52.7 µg/mL
same,MIC,Nakaseomyces glabratus [32],1.9 µg/mL
same,MIC,Candida albicans [33],30 µM
same,MIC,Candida tropicalis [34],10.4 µg/mL
same,MIC50,Candida tropicalis [34],13 to 104 µg/mL
same,MIC,Pichia kudriavzevii [35],2.7 µg/mL
same,MIC,Nakaseomyces glabratus [36],1.9 µg/mL
O=c1c(O[C@@H]2O[C@H](CO)[C@H](O)[C@H](O)[C@H]2O)c(-c2ccc(O)c(O)c2)oc2cc(O)cc(O)c12 [HYPEROSIDE],MIC,Cryptococcus neoformans [37],128 µg/mL
same,MIC,Candida albicans [38],256 µg/mL
same,MIC,Candida parapsilosis [39],128 µg/mL
